The record followed here is patent US9643953B2, “Substituted benzylpyrazoles” (Bayer Intellectual Property GmbH, priority 2011, dated 2017).

One assay concerns HeLa cell line. The assay can be described thus: Proliferation assay (HeLa cell line).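 Note: crystal violet staining of cell number, absorbance read at 595 nm, compounds tested at 0.001–10 µM, zero-point plate taken as 0% and untreated cells as 100%, four-parameter fit.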 The conditions noted are these: Homo sapiens, HeLa, 96 h.
For assay [1], the target named is T1, catalytic domain of human Bub1 (amino acids 704-1085) (Homo sapiens, UniProt O43683).
T1 construct: catalytic domain of human Bub1 (amino acids 704-1085); His6 (N); made in house; host or cells: Hi5 insect cells
The assay can be described thus: Bub1 kinase assay (TR-FRET). The conditions noted are these: ATP 10 μM, peptide substrate 1 μM, 60 min at 22° C. Format: biochemical. The procedure:
To this end, 100-fold concentrated compound solutions (in DMSO) were previously prepared by serial dilution (1:3.4) of 2 mM stocks in a clear low volume 384-well source microtiter plate (Greiner Bio-One, Frickenhausen, Germany), from which 50 nl of compounds were transferred into a black low volume test microtiter plate from the same supplier. […] The resulting mixture (5 μl final volume) was incubated at 22° C. during 60 min., and the reaction was stopped by the addition of 5 μl of an aqueous EDTA-solution (50 mM EDTA, in 100 mM HEPES pH 7.5 and 0.2% (w/v) bovine serum albumin) which also contained the TR-FRET detection reagents (0.2 μM streptavidin-XL665 [Cisbio Bioassays, Codolet, France] and 1 nM anti-phosho-Serine antibody [Merck Millipore, cat. #35-001] and 0.4 nM LANCE EU-W1024 labeled anti-mouse IgG antibody [Perkin-Elmer, product no. AD0077, alternatively a Terbium-cryptate-labeled anti-mouse IgG antibody from Cisbio Bioassays can be used]). The stopped reaction mixture was further incubated 1 h at 22° C. in order to allow the formation of complexes between peptides and detection reagents. Subsequently, the amount of product was evaluated by measurement of the resonance energy transfer from the Eu-chelate-antibody complex recognizing the Phosphoserine residue to the streptavidin-XL665 bound to the biotin moiety of the peptide. […] IC50 values were calculated by fitting the normalized inhibition data to a 4-parameter logistic equation (Minimum, Maximum, IC50, Hill; Y=Max+(Min−Max)/(1+(X/IC50)Hill)).
On the technique in general: Time-resolved FRET reads energy transfer from a long-lived donor to a nearby acceptor.

Setting [2] is: read-out: Biological Assay 2: Proliferation assay (HeLa cell line) median IC50.
[3] abbreviates: TR-FRET, read-out: Biological Assay 1: Bub1 kinase assay median IC50.
[4] abbreviates: read-out: Biological Assay 2: Proliferation assay (HeLa cell line) median IC50, HeLa cells, 4 days incubation, crystal violet staining.
Setting [5] is: Biological Assay 1: Bub1 kinase assay median IC50, TR-FRET.

Like-named read-outs stand apart in the source and are kept apart here.

T1 sequence (O43683 704-1085): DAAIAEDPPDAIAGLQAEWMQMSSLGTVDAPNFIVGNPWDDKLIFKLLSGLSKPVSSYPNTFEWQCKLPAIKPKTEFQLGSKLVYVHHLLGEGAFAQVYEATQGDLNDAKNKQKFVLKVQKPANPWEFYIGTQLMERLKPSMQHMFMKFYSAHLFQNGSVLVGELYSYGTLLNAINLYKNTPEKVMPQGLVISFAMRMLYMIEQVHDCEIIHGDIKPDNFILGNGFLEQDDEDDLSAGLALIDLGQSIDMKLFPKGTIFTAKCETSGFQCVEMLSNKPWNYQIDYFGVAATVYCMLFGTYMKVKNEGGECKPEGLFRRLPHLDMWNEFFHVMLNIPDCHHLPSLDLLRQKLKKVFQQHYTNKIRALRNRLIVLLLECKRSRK
Procedure for HeLa cell line: Cultivated tumor cells (cells were ordered from ATCC, except HeLa-MaTu and HeLa-MaTu-ADR, which were ordered from EPO-GmbH, Berlin) were plated at a density of 1000 to 5000 cells/well, depending on the growth rate of the respective cell line, in a 96-well multititer plate in 200 μL of their respective growth medium supplemented 10% fetal calf serum. After 24 hours, the cells of one plate (zero-point plate) were stained with crystal violet (see below), while the medium of the other plates was replaced by fresh culture medium (200 μl), to which the test substances were added in various concentrations (0 μM, as well as in the range of 0.001-10 μM; the final concentration of the solvent dimethyl sulfoxide was 0.5%). The cells were incubated for 4 days in the presence of test substances. Cell proliferation was determined by staining the cells with crystal violet: the cells were fixed by adding 20 μl/measuring point of an 11% glutaric aldehyde solution for 15 minutes at room temperature. After three washing cycles of the fixed cells with water, the plates were dried at room temperature. The cells were stained by adding 100 μl/measuring point of a 0.1% crystal violet solution (pH 3.0). After three washing cycles of the stained cells with water, the plates were dried at room temperature. The dye was dissolved by adding 100 μl/measuring point of a 10% acetic acid solution. Absorption was determined by photometry at a wavelength of 595 nm. The change of cell number, in percent, was calculated by normalization of the measured values to the absorption values of the zero-point plate (=0%) and the absorption of the untreated (0 μm) cells (=100%). The IC50 values were determined by means of a 4 parameter fit.

Consider `COc1cnc(-c2nn(Cc3c(Cl)cccc3Cl)c(C3CC3)c2C)nc1Nc1ccncc1` [Example 2-1-9, 2-[5-cyclopropyl-1-(2,6-dichlorobenzyl)-4-methyl-1H-pyrazol-3-yl]-5-methoxy-N-(pyridin-4-yl)pyrimidin-4-amine], for which the IC50 in the assay on HeLa cell line (setting [2]) was above 10000 nM; in assay [1] (setting [3]), 5.76 nM.

For `CCOc1cc(F)c(Cn2nc(-c3ncc(OCC[S+](C)[O-])c(Nc4ccncc4)n3)c(C)c2C2CC2)c(F)c1` (racemic) [Example 2-8-1, 2-[5-cyclopropyl-1-(4-ethoxy-2,6-difluorobenzyl)-4-methyl-1H-pyrazol-3-yl]-5-[2-(methylsulfinyl)ethoxy]-N-(pyridin-4-yl)pyrimidin-4-amine], the IC50 in the assay on HeLa cell line (setting [4]) stood at 3930 nM; in assay [1] (setting [3]), 4.19 nM.

Take `CCOc1cc(F)c(Cn2nc(-c3ncc(OCC4CCC(=O)N4)c(Nc4ccncc4)n3)c(C)c2C2CC2)c(F)c1` (single isomer, unassigned; enantiomer 1) [Example 2-3-6, 5-[({2-[5-cyclopropyl-1-(4-ethoxy-2,6-difluorobenzyl)-4-methyl-1H-pyrazol-3-yl]-4-(pyridin-4-ylamino)pyrimidin-5-yl}oxy)methyl]pyrrolidin-2-one enantiomer 1]: the results for the IC50 (with HeLa cell line (setting [4]); in assay [1] (setting [3])) were 2970 nM and 8.14 nM, respectively.

The compound `CCOc1cc(F)c(Cn2nc(-c3ncc(OC)c(Nc4ccncc4C#N)n3)c(C)c2C2CC2)c(F)c1` [Example 2-6-4, 4-({2-[5-cyclopropyl-1-(4-ethoxy-2,6-difluorobenzyl)-4-methyl-1H-pyrazol-3-yl]-5-methoxypyrimidin-4-yl}amino)nicotinonitrile] displayed an IC50 in assay [1] (setting [5]) of 48.6 nM.

For `CCOc1cc(F)c(Cn2nc(-c3ncc(OCS(N)(=O)=O)c(Nc4ccncc4)n3)c(C)c2C2CC2)c(F)c1` [Example 2-3-5, 1-({2-[5-cyclopropyl-1-(4-ethoxy-2,6-difluorobenzyl)-4-methyl-1H-pyrazol-3-yl]-4-(pyridin-4-ylamino)pyrimidin-5-yl}oxy)methanesulfonamide], the IC50 with HeLa cell line (setting [2]) came out at 3200 nM; in assay [1] (setting [5]) it was 5.55 nM.

`CCOc1cc(F)c(Cn2nc(-c3ncc(OCC4(CO)COC4)c(Nc4ccncc4)n3)c(C)c2C2CC2)c(Sc2ccccc2)c1` [Example 2-3-9, [3-({[2-{5-cyclopropyl-1-[4-ethoxy-2-fluoro-6-(phenylsulfanyl)benzyl]-4-methyl-1H-pyrazol-3-yl}-4-(pyridin-4-ylamino)pyrimidin-5-yl]oxy}methyl)oxetan-3-yl]-methanol]: the IC50 in the assay on HeLa cell line (setting [4]) turned out to be 6460 nM; in assay [1] (setting [3]) it was 249 nM.

For the compound `COc1cnc(-c2cc(N(C)C)n(Cc3ccccc3F)n2)nc1Nc1ccncc1` [Example 2-1-2, 2-[5-(dimethylamino)-1-(2-fluorobenzyl)-1H-pyrazol-3-yl]-5-methoxy-N-(pyridin-4-yl)pyrimidin-4-amine], the results for the IC50 (in the assay with HeLa cell line (setting [2]); in assay [1] (setting [3])) were above 10000 nM and 1150 nM, respectively.

Consider `CCOc1cc(F)c(Cn2nc(-c3ncc(OC)c(Nc4ccncc4)n3)c(C)c2N(C)C)c(F)c1` [Example 2-6-2, 2-[5-(dimethylamino)-1-(4-ethoxy-2,6-difluorobenzyl)-4-methyl-1H-pyrazol-3-yl]-5-methoxy-N-(pyridin-4-yl)pyrimidin-4-amine], for which the IC50 in assay [1] (setting [5]) is 12.6 nM.

Turning to `CCOc1cc(-c2ncc(OC)c(Nc3ccncc3)n2)nn1Cc1ccccc1F` [Example 2-1-4, 2-[5-ethoxy-1-(2-fluorobenzyl)-1H-pyrazol-3-yl]-5-methoxy-N-(pyridin-4-yl)pyrimidin-4-amine], the IC50 in the assay on HeLa cell line (setting [2]) was above 10000 nM; in assay [1] (setting [3]), 638 nM.

Take `COc1cnc(-c2nn(Cc3ccccc3F)c(C3CC3)c2C)nc1Nc1ccncc1` [Example 2-1-10, 2-[5-cyclopropyl-1-(2-fluorobenzyl)-4-methyl-1H-pyrazol-3-yl]-5-methoxy-N-(pyridin-4-yl)pyrimidin-4-amine]: the IC50 with HeLa cell line (setting [2]) is 3490 nM; in assay [1] (setting [3]), 36.5 nM.

As for `CCOc1cc(F)c(Cn2nc(-c3nccc(Nc4ccncc4C#N)n3)c(C)c2C2CC2)c(F)c1` [Example 2-6-6, 4-({2-[5-cyclopropyl-1-(4-ethoxy-2,6-difluorobenzyl)-4-methyl-1H-pyrazol-3-yl]pyrimidin-4-yl}amino)nicotinonitrile], the IC50 in the assay on HeLa cell line (setting [2]) is above 10000 nM; in assay [1] (setting [5]), 8.77 nM.

Turning to `CCOc1cc(F)c(Cn2nc(-c3ncc(OCCSC)c(Nc4ccncc4)n3)c(C)c2C2CC2)c(F)c1` [Example 2-3-4, 2-[5-cyclopropyl-1-(4-ethoxy-2,6-difluorobenzyl)-4-methyl-1H-pyrazol-3-yl]-5-[2-(methylsulfanyl)ethoxy]-N-(pyridin-4-yl)pyrimidin-4-amine], the IC50 with HeLa cell line (setting [2]) came to 5570 nM; in assay [1] (setting [5]), 10.8 nM.

For the compound `CCOC(=O)c1cnccc1Nc1nc(-c2nn(Cc3c(F)cc(OCC)cc3F)c(C3CC3)c2C)ncc1OC` [Example 2-6-5, ethyl 4-({2-[5-cyclopropyl-1-(4-ethoxy-2,6-difluorobenzyl)-4-methyl-1H-pyrazol-3-yl]-5-methoxypyrimidin-4-yl}amino)nicotinate], the IC50 in assay [1] (setting [5]) is 27.4 nM.

Regarding `CCOc1cc(F)c(Cn2nc(-c3ncc(OCCC[S+](C)[O-])c(Nc4ccncc4)n3)c(C)c2C2CC2)c(F)c1` (centres unmarked) [Example 2-8-4, 2-[5-cyclopropyl-1-(4-ethoxy-2,6-difluorobenzyl)-4-methyl-1H-pyrazol-3-yl]-5-[3-(methylsulfinyl)propoxy]-N-(pyridin-4-yl)pyrimidin-4-amine], the IC50 is 4310 nM with HeLa cell line (setting [4]) and 7.9 nM in assay [1] (setting [3]).

With `COc1cnc(-c2cc(C3CC3)n(Cc3ccccc3)n2)nc1Nc1ccncc1` [Example 2-1-5, 2-(1-benzyl-5-cyclopropyl-1H-pyrazol-3-yl)-5-methoxy-N-(pyridin-4-yl)pyrimidin-4-amine], the IC50 is above 10000 nM with HeLa cell line (setting [2]) and 516 nM in assay [1] (setting [3]).

On to `COc1ccc(Cn2nc(-c3ncc(OC)c(Nc4ccncc4)n3)c(C)c2C2CC2)cc1` [Example 2-6-1, 2-[5-cyclopropyl-1-(4-methoxybenzyl)-4-methyl-1H-pyrazol-3-yl]-5-methoxy-N-(pyridin-4-yl)pyrimidin-4-amine], for which the IC50 in assay [1] (setting [3]) was found to be 15.1 nM.

`CCOc1cc(F)c(Cn2nc(-c3ncc(C#N)c(Nc4ccncc4)n3)c(C)c2C2CC2)c(F)c1` [Example 2-6-3, 2-[5-cyclopropyl-1-(4-ethoxy-2,6-difluorobenzyl)-4-methyl-1H-pyrazol-3-yl]-4-(pyridin-4-ylamino)pyrimidine-5-carbonitrile]: the IC50 in the assay with HeLa cell line (setting [2]) was 9350 nM.

On to `COc1cnc(-c2nn(Cc3c(F)cc(C4CC4)cc3F)c(C3CC3)c2C)nc1Nc1ccncc1` [Example 2-7-1, 2-[5-cyclopropyl-1-(4-cyclopropyl-2,6-difluorobenzyl)-4-methyl-1H-pyrazol-3-yl]-5-methoxy-N-(pyridin-4-yl)pyrimidin-4-amine], for which the IC50 in assay [1] (setting [3]) is 8.62 nM.

In assay [1] (setting [5]), `CCOc1cc(F)c(Cn2nc(-c3ncc(O)c(Nc4ccncc4)n3)c(C)c2C2CC2)c(F)c1` [Example 2-2-1, 2-[5-cyclopropyl-1-(4-ethoxy-2,6-difluorobenzyl)-4-methyl-1H-pyrazol-3-yl]-4-(pyridin-4-ylamino)pyrimidin-5-ol] returned an IC50 of 6.2 nM.

As to `CCOc1cc(F)c(Cn2nc(-c3ncc(OCC[S+](C)[O-])c(Nc4ccncc4)n3)c(C)c2C2CC2)c(F)c1` (single isomer, unassigned; enantiomer 2) [Example 2-8-3, 2-[5-cyclopropyl-1-(4-ethoxy-2,6-difluorobenzyl)-4-methyl-1H-pyrazol-3-yl]-5-[2-(methylsulfinyl)ethoxy]-N-(pyridin-4-yl)pyrimidin-4-amine enantiomer 2], the IC50 in assay [1] (setting [3]) amounted to 6.17 nM.

Turning to `CCOc1cc(F)c(Cn2nc(-c3ncc(OC)c(Nc4ccncc4C(=O)O)n3)c(C)c2C2CC2)c(F)c1` [Example 2-11-1, 4-({2-[5-cyclopropyl-1-(4-ethoxy-2,6-difluorobenzyl)-4-methyl-1H-pyrazol-3-yl]-5-methoxypyrimidin-4-yl}amino)nicotinic acid], in assay [1] (setting [5]), the IC50 is 26.8 nM.

For `CCOc1cc(F)c(Cn2nc(-c3ncc(OCC[S+](C)[O-])c(Nc4ccncc4)n3)c(C)c2C2CC2)c(F)c1` (single isomer, unassigned; enantiomer 1) [Example 2-8-2, 2-[5-cyclopropyl-1-(4-ethoxy-2,6-difluorobenzyl)-4-methyl-1H-pyrazol-3-yl]-5-[2-(methylsulfinyl)ethoxy]-N-(pyridin-4-yl)pyrimidin-4-amine enantiomer 1], the IC50 in assay [1] (setting [3]) amounted to 3.96 nM.

In the case of `COc1cnc(-c2nn(Cc3c(F)cc(OC(F)F)cc3F)c(C3CC3)c2C)nc1Nc1ccncc1` [Example 2-10-1, 2-{5-cyclopropyl-1-[4-(difluoromethoxy)-2,6-difluorobenzyl]-4-methyl-1H-pyrazol-3-yl}-5-methoxy-N-(pyridin-4-yl)pyrimidin-4-amine], the IC50 in assay [1] (setting [3]) was determined as 6.79 nM.
